Earlier results as cited in patent US20160310525A1, “PREPARATION FOR PREVENTION AND/OR TREATMENT OF PERI-IMPLANTITIS” (RLS GLOBAL AB, priority 2013, published 2016).

Tested on: biofilm on titan specimens

For `OCl` [sodium hypochlorite], the “antimicrobial effect on biofilm” value is given as “effective”.
